Here are results for 3 compounds from patent US9927437B2, “Treating neurodegenerative disease” (THE BRIGHAM AND WOMEN'S HOSPITAL, INC., priority 2013, dated 2018).

Entries after “also recorded” stand apart in the source; their conditions may differ.

Data set [1] has as its system T cells. Description: T-cell response in EAE mice (recall proliferation, cytokines, polarization). In kind it is in vivo, mouse. On the procedure: FIGS. 9a-d. Depletion of reactive astrocytes reduces the recruitment of peripheral leukocytes to the CNS. (a-d). EAE was induced in WT or GFAP^TK F1 hybrid mice and Ganciclovir (GCV) or vehicle control (PBS) was administered as in FIG. 1b. Data are representative of three independent experiments with n≥7 mice/group (means and s.e.m.). (a) Effect of GCV administration on reactive astrocytes detected by GFAP staining (b) Recruitment of monocytes (red gate) and lymphocytes (green gate) to the CNS assessed by FACS. Data are representative of three independent experiments. Statistical analysis by Student's t-test. (c, d) Effect of the depletion of reactive astrocytes during the chronic phase of EAE on the recall proliferative response to MOG(35-55) or anti-CD3 (c) and the expression of IFN-γ, IL-17A, Foxp3 and IL-10 in splenic CD4+ T cells (d). *P<0.05, and (n.s) not significant.
(§1) FIGS. 12a-i. […] (a) Naïve C57BL/6 (Left panel) and NOD (right panel) mice were treated with LacCer (10 μg per mouse) or vehicle as indicated by red arrows, and EAE clinical scores was recorded. At experimental end point (day 25), astrocytes were isolated and their transcriptional profile was determined by nCounter Nanostring analysis. (b-e) EAE was induced in C57BL/6 (b, c) or NOD mice (d, e) and LacCer or vehicle were administrated as in FIGS. 1g and 1h, respectively. Splenic T-cell recall response to MOG(35-55) (20 μg/ml); proliferation (b, d) and secretion of IL-17A, IFN-γ and IL-10 cytokines (c, e). Data are representative of two independent experiments with ≥8 mice/group (mean and s.e.m.). (f-i) EAE NOD mice were treated with PDMP or vehicle during the chronic phase as in FIG. 1K. Data are representative of three independent experiments with n≥8 mice/group (mean and s.e.m.). (f) qPCR analysis of the expression of tbx21, ifng, rorc, il17A, csf2, il10, foxp3, and tgfb1 mRNA of CD3^+CD4^+ T-cells isolated from the CNS; expression is presented relative to gapdh. (g, h) Recall response to MOG(35-55) (20 μg/ml); proliferation (g) and secretion of IL-17A, IFN-γ and IL-10 cytokines (h). (i) Expression of IFN-γ, IL-17A, Foxp3 and IL-10 by splenic CD3^+CD4^+ T cells (mean and s.e.m.).
Splenocytes and lymph node cells were cultured in X-VIVO medium and were plated for 72 h at a density of 5×10^5 cells per well in the presence of MOG35-55 peptide. During the final 16 h, cells were pulsed with […] [3H]thymidine (PerkinElmer), followed by collection on glass fiber filters and analysis of incorporated [3H]thymidine in a-counter (1450 MicroBeta TriLux; PerkinElmer). Supernatants were collect after 48 h of culture for cytokine measurement by enzyme-linked immunosorbent assay^14. For intracellular cytokine staining, cells were stimulated for 6 h with PMA (phorbol 12-myristate 13-acetate; 50 ng/ml; Sigma), ionomycin (1 μg/ml; Sigma) and monensin (GolgiStop; […]; BD Biosciences). After staining of surface markers, cells were fixed and made permeable according to the manufacturer's instructions BD Cytofix/Cytoperm™ Kit (BD Biosciences), or Foxp3 Fixation/Permeabilization (Ebiosceince).

In data set [2] the test system is human primary astrocytes. Description: Activation of human primary astrocytes with IL-1β or poly(I:C), qPCR. In kind it is cell-based. Particulars: PDMP 25 μM; IL-1β 10 ng/ml or Poly (I:C) 10 μg/ml, 6 h. From the text: FIG. 6a-d. […] Autopsy samples were obtained from lesions (n=10) or NAWM (n=5) from MS, non-MS CNS inflammatory diseases (NMSCID, including viral encephalitis, Rasmussen's encephalitis and ADEM, n=5) patients and healthy controls (n=6). (a) qPCR analysis of B4GALT5 and B4GALT6 mRNA expression in CNS samples relative to ACTB. (b) IF analysis of B4GALT6, CCL2 and iNOS in GFAP+ astrocytes in NAWM and Lesion of MS patients. (c) LacCer levels determined in CNS samples, relative to protein content. Statistical analysis by one-way ANOVA, followed by Tukey post-hoc analysis. (d) Primary human astrocytes were pre-treated with PDMP (25 μM) or vehicle, and activated with IL-1β (10 ng/ml) or Poly (I:C) (10 μg/ml) or left untreated (control). RNA was harvested 6 h later and the expression of CCL2, CCL5, COX2, IL6, NOS2, and TLR2 was analyzed by qPCR relative to ACTB in 3 independent experiments. Statistical analysis by Student's t-test. Data presented are mean and s.e.m. *P<0.05, **P<0.01 and ***P<0.001.
Human fetal astrocytes were isolated as previously described^57 from human CNS tissue from fetuses at 17-23 wk of gestation obtained from the Human Fetal Tissue Repository (Albert Einstein College of Medicine, Bronx, N.Y.) following Canadian Institutes for Health Research-approved guidelines. Cultures were >90% pure.
(In general: Quantitative PCR measures a nucleic acid by following its amplification.)

Data set [3] deals with C8-D30 astrocytes. Description: In vitro knock-down with shRNA in C8-D30 astrocytes, LPS/IFNγ activation. The class given is cell-based, mouse. Particulars: lentivirus-delivered shRNA.
In data set [4] the test system is Naïve C57BL/6 and NOD mice. Description: LacCer administration to naïve mice without MOG immunization. In kind it is in vivo. Particulars: 10 μg per mouse, absence of MOG immunization. Here is the method:
as §1

In data set [5] the test system is leptomeningeal phagocytes. Description: Transcriptional response of leptomeningeal phagocytes to LPS/IFNγ. The class given is cell-based, mouse. Particulars: LacCer 10 μM 1 h, LPS/IFNγ 6 h. On the procedure:
FIGS. 15a-b. […] Leptomeningeal phagocytes (a) and choroid plexus cells (b) were pre-treated for 1 h with LacCer (10 μM), or vehicle control (vehicle), followed by activation with LPS/IFNγ for 6 h, or left un-treated (control, Con). mRNA expression was determined by nCounter Nanostring analysis. Representative data of two independent experiments.
The meninges were carefully stripped from the brains of 1- to 3-day-old neonatal mice, and digested with 1% collagenase for 20 min at 37° C., and then dispersed into a single-cell level. Isolated cells, were incubated with anti-mouse CD16/CD32 for 15 min on ice to block the Fc receptors, and stained with APC-conjugated antibody for CD11b (M1/70) for 30 min at 4° C. Cells were washed, incubated with 7-AAD for exclusion of dead cells, and sorted.

Take `CCCCCCCCCC(=O)N[C@H](CN1CCOCC1)[C@H](O)c1ccccc1` [PDMP, D-threo-1-phenyl-2-decanoylamino-3-morpholino-1-propanol]: in data set [1] (NOD EAE, PDMP-treated mice, chronic phase), the T-cell response entry is “No significant changes”. In addition, the “CCL2, CCL5, COX2, IL6, NOS2 and TLR2 expression” value in data set [2] is given as “significant decrease”.
As for “shB4galt6: lentivirus-delivered shRNA against b4galt6 (TRCN0000334278; SEQ ID NO:3) (guide CGATGGACTGAACAATTTATTCTCGAGAATAAATTGTTCAGTCCACG)”, in data set [3], the “up-regulation of h2-Aa, ccl5 and cxcl10 expression” value is “significantly suppressed the up-regulation”.
In the case of lactosylceramide [LacCer], the “induction of EAE-like disease” value in data set [4] is given as “did not result in the induction of EAE-like disease”. In data set [1] (C57BL/6 and NOD EAE after LacCer administration), the T-cell response entry was “not linked to changes in the T-cell response”. Moreover, the “transcriptional response to activation of leptomeningeal phagocytes” value in data set [5] is “did not affect the transcriptional response; also recorded: does not affect the transcriptional response”.
